Measured values from patent US8703104B2, “Use of metal astringents for the treatment of hairy heel warts” (Ecolab USA Inc, priority 2007, dated 2014).
Where two headings read alike, the source gives them in different places.

Tested on: hairy heel wart lesions on the cows
[1] = Day 0, prior to first treatment
[2] = Grading Period 1 (Day 0), one day prior to first treatment

O=S(=O)([O-])[O-].[Cu+2] [CuSO4, copper sulfate]
Lesion Appearance Score Distribution: number of cows with Grade Score 4 (Dead lesion) [1]: 1
Lesion Pain Score Distribution: number of cows with Grade Score 1 (Minor pain) [1]: 10
Lesion Size Score Distribution: number of cows with Grade Score 1 (Dime Size) [1]: 6
Lesion Size Score Distribution: number of cows with Grade Score 2 (Quarter Size) [1]: 5
Locomotion Score Distribution: number of cows with Grade Score 1 (Stands and walks normal) [1]: 5
Lesion Appearance Score Distribution: number of cows with Grade Score 4 (Dead lesion) (Day 5): 5
Lesion Pain Score Distribution: number of cows with Grade Score 1 (Minor pain) (Day 5): 6
Lesion Size Score Distribution: number of cows with Grade Score 1 (Dime Size) (Day 5): 4
Lesion Size Score Distribution: number of cows with Grade Score 2 (Quarter Size) (Day 5): 4
Locomotion Score Distribution: number of cows with Grade Score 1 (Stands and walks normal) (Day 5): 3
Lesion Appearance Score Distribution: number of cows with Grade Score 4 (Dead lesion) (Day 10): 6
Lesion Pain Score Distribution: number of cows with Grade Score 1 (Minor pain) (Day 10): 9
Lesion Size Score Distribution: number of cows with Grade Score 1 (Dime Size) (Day 10): 10
Lesion Size Score Distribution: number of cows with Grade Score 2 (Quarter Size) (Day 10): 1
Locomotion Score Distribution: number of cows with Grade Score 1 (Stands and walks normal) (Day 10): 3
Lesion Appearance Score Distribution: number of cows with Grade Score 4 (Dead lesion) (Day 14): 5
Lesion Pain Score Distribution: number of cows with Grade Score 1 (Minor pain) (Day 14): 5
Lesion Size Score Distribution: number of cows with Grade Score 1 (Dime Size) (Day 14): 4
Lesion Size Score Distribution: number of cows with Grade Score 2 (Quarter Size) (Day 14): 6
Locomotion Score Distribution: number of cows with Grade Score 1 (Stands and walks normal) (Day 14): 8
Lesion Appearance Score Distribution: number of cows with Grade Score 4 (Dead lesion) (Day 19): 3
Lesion Pain Score Distribution: number of cows with Grade Score 1 (Minor pain) (Day 19): 5
Lesion Size Score Distribution: number of cows with Grade Score 1 (Dime Size) (Day 19): 8
Lesion Size Score Distribution: number of cows with Grade Score 2 (Quarter Size) (Day 19): 3
Locomotion Score Distribution: number of cows with Grade Score 1 (Stands and walks normal) (Day 19): 8
Average lesion color score (scale 0 to 5) [2]: 1.64
Average lesion pain score (scale 0 to 2) [2]: 1.09
Average locomotion score (scale 1-5) [2]: 1.82
Average lesion color score (scale 0 to 5) (Grading Period 2 (Day 5)): 2.20
Average lesion pain score (scale 0 to 2) (Grading Period 2 (Day 5)): 0.60
Average lesion size score (scale 0 to 3) (Grading Period 2 (Day 5)): 1.80
Average locomotion score (scale 1-5) (Grading Period 2 (Day 5)): 1.90
Average lesion color score (scale 0 to 5) (Grading Period 3 (Day 10)): 2.45
Average lesion pain score (scale 0 to 2) (Grading Period 3 (Day 10)): 1.00
Average lesion size score (scale 0 to 3) (Grading Period 3 (Day 10)): 1.09
Average locomotion score (scale 1-5) (Grading Period 3 (Day 10)): 1.82
Average lesion color score (scale 0 to 5) (Grading Period 4 (Day 14)): 3.10
Average lesion pain score (scale 0 to 2) (Grading Period 4 (Day 14)): 0.50
Average lesion size score (scale 0 to 3) (Grading Period 4 (Day 14)): 1.60
Average locomotion score (scale 1-5) (Grading Period 4 (Day 14)): 1.20
Average lesion pain score (scale 0 to 2) (Grading Period 5 (Day 19)): 0.45
Average lesion size score (scale 0 to 3) (Grading Period 5 (Day 19)): 1.27
Average locomotion score (scale 1-5) (Grading Period 5 (Day 19)): 1.55
